Legend:
Neutrophil elastase [1] = biological target: T1, Neutrophil elastase (Homo sapiens, UniProt P08246)
T1 sequence (P08246 whole entry): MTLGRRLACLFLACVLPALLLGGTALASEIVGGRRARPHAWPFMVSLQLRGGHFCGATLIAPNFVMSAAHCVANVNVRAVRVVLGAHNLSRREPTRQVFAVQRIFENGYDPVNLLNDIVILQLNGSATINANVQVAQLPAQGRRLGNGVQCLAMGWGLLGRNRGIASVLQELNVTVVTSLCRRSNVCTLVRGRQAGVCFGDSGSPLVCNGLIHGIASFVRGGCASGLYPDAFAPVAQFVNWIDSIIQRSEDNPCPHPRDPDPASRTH
Description: (§1) Inhibition of neutrophil elastase in human whole blood using MeO-Succ-Ala-Ala-Pro-Val-pNA as substrate after 30 mins by colorimetric analysis

Pancreatic elastase = Pancreatic elastase (Sus scrofa, UniProt P08419+P00772); test: Inhibition of porcine pancreatic elastase using as succinyl-Ala-Ala-Ala-p-nitroanilide as substrate measured every 1 min by spectrophotometric analysis; type: protein assay
Neutrophil elastase [2] = biological target: T1, Neutrophil elastase; test: Inhibition of human neutrophil elastase
Homo sapiens [3] = test: Inhibition of sputum neutrophil count in cystic fibrosis patient at 60 mg/kg, po bid measured at 24 hrs relative to control; type: functional
Neutrophil elastase [4] = biological target: T1, Neutrophil elastase; test: Inhibition of human neutrophil elastase using MeO-Suc-Ala-Ala-Pro-Val 7-amido-4-methylcoumarin as substrate preincubated for 15 mins followed by substrate addition measured after 90 mins
Homo sapiens [5] = species on record: Homo sapiens; test: Selectivity ratio of IC50 for human PR3 to IC50 for human neutrophil elastase
Homo sapiens [6] = species on record: Homo sapiens; test: Selectivity ratio of IC50 for human CatG to IC50 for human neutrophil elastase
Homo sapiens [7] = species on record: Homo sapiens; test: Selectivity ratio of IC50 for human chymotrypsin to IC50 for human neutrophil elastase
[8] = Selectivity ratio of IC50 for mouse neutrophil elastase to IC50 for human neutrophil elastase
[9] = Selectivity ratio of IC50 for porcine pancreatic elastase to IC50 for human neutrophil elastase
Homo sapiens [10] = species on record: Homo sapiens; test: Selectivity ratio of IC50 for human trypsin to IC50 for human neutrophil elastase
[11] = Selectivity ratio of IC50 for rat neutrophil elastase to IC50 for human neutrophil elastase
[12] = Half life in human hepatocytes at 1 uM by LC/MS-MS analysis
Neutrophil elastase [13] = biological target: T1, Neutrophil elastase; test: Inhibition of human neutrophil elastase using MeO-Succ-Ala-Ala-Pro-Val-AMC as substrate after 30 mins by fluorescence assay
Neutrophil elastase [14] = biological target: T1, Neutrophil elastase; test: Inhibition of neutrophil elastase in human plasma using MeOSuc-Ala-Ala-Pro-Val-AMC as substrate by fluorescence assay
[15] = biological target: T2, Neutrophil elastase (Homo sapiens) (UniProt P08246); conditions: Blood
T2 sequence (whole entry): T1 sequence (P08246 whole entry)
Description: as §1

[16] = Half life in po dosed human administered as qd; type: ADME, organism-based; conditions: in vivo

Q: For `CCc1cc(OC)cc2nc(-c3cccnc3N3CC[C@H](N(C)C)C3)oc(=O)c12`, which IC50 (Neutrophil elastase [1]) is on record?
A: Its IC50 is 7 nM.

Q: Which IC50 (Pancreatic elastase) does the source give for `CC(C)(C)C(=O)Oc1ccc(S(=O)(=O)Nc2ccccc2C(=O)NCC(=O)[O-])cc1.[Na+]` here?
A: The IC50 was 5600 nM.

Q: For `Cc1c(-c2ccnn2-c2ccc(C#N)cc2)cn2nc(NC(=O)CN(C)C)nc2c1-c1cccc(C(F)(F)F)c1`, which IC50 (Neutrophil elastase [2]) is on record?
A: Its IC50 is under 20 nM.

Q: With `Cc1c(-c2ccnn2C)cc(C(=O)NCc2ccc(S(C)(=O)=O)cn2)c(=O)n1-c1cccc(C(F)(F)F)c1` as the compound, how does the inhibition in vivo at 60 mg/kg (Homo sapiens [3]) read?
A: The inhibition in vivo at 60 mg/kg was 50%.

Q: And the Ki (Neutrophil elastase [4])?
A: The Ki was 12 nM.

Q: What about the Ratio IC50 (Homo sapiens [5]) of the same compound?
A: The Ratio IC50 was over 1900.

Q: What about the Ratio IC50 (Homo sapiens [6]) of the same compound?
A: Its Ratio IC50 is over 680.

Q: And the Ratio IC50 (Homo sapiens [7])?
A: The Ratio IC50 was over 2000.

Q: And the Ratio IC50 [8]?
A: The Ratio IC50 was 24.

Q: And the Ratio IC50 [9]?
A: The Ratio IC50 was over 2000.

Q: And the Ratio IC50 (Homo sapiens [10])?
A: Its Ratio IC50 is over 2000.

Q: What about the Ratio IC50 [11] of the same compound?
A: Its Ratio IC50 is 18.

Q: For `N#Cc1ccc([C@H]2NC(=O)N(c3cccc(C(F)(F)F)c3)C3=C2C(=O)CC3)cc1`, which half-life at 1 µM [12] is on record?
A: The half-life at 1 µM was over 2.17 h.

Q: For `CS(=O)(=O)c1cc(C#N)ccc1[C@@H]1C2=C(CCC2=O)N(c2cccc(C(F)(F)F)c2)C(=O)N1CC#N`, which IC50 (Neutrophil elastase [13]) is on record?
A: Its IC50 is under 1 nM.

Q: What about the IC50 (Neutrophil elastase [14]) of the same compound?
A: Its IC50 is under 1 nM.

Q: And the half-life at 1 µM [12]?
A: Its half-life at 1 µM is over 2.17 h.

Q: For `CC(C)C[C@H]1C(=O)N(COC(=O)Cc2ccccc2Nc2c(Cl)cccc2Cl)S(=O)(=O)N1C`, which K [15] is on record?
A: Its K is 9.8 ×10⁵ /M/s.

Q: For `COC(=O)C1=C(C)N(c2cccc(C(F)(F)F)c2)c2n[nH]c(=O)n2[C@@H]1c1ccc(C#N)cc1CCCN(C)C`, which IC50 (Neutrophil elastase [13]) is on record?
A: The IC50 was under 20 nM.

Q: Which half-life at 1 µM [12] does the source give for `CS(=O)(=O)c1cc(C#N)ccc1[C@@H]1C2=C(CCC2=O)N(c2cccc(C(F)F)c2)C(=O)N1C(=O)NC1CC1` here?
A: The half-life at 1 µM was over 2.17 h.

Q: With `CNC(=O)N1C(=O)N(c2cccc(C(F)(F)F)c2)C2=C(C(=O)CC2)[C@H]1c1ccc(C#N)cc1S(C)(=O)=O` as the compound, how does the IC50 (Neutrophil elastase [13]) read?
A: Its IC50 is under 1 nM.

Q: What about the IC50 (Neutrophil elastase [14]) of the same compound?
A: The IC50 was under 1 nM.

Q: What about the half-life at 1 µM [12] of the same compound?
A: Its half-life at 1 µM is over 2.17 h.

Q: For `CC1=C(C#N)[C@@H](c2ccc(C#N)cc2S(C)(=O)=O)N(C)C(=O)N1c1cccc(C(F)(F)F)c1`, which half-life [16] is on record?
A: Its half-life is 120 h.

From ChEMBL document CHEMBL3616465, “Neutrophil elastase inhibitors for the treatment of (cardio)pulmonary diseases: Into clinical testing with pre-adaptive pharmacophores” (Bioorg Med Chem Lett, 2015)
